Measurements as given in paper PMC5918173, “Characterization of Transglutaminase 2 activity inhibitors in monocytes in vitro and their effect in a mouse model for multiple sclerosis” (PLoS ONE, 2018).

Assays:
EAE C57BL/6 mice = test: MOG35-55 induced EAE in C57BL/6 mice, treatment with TG2 inhibitors; type: in vivo, mouse; settings: for loss of body weight compared to vehicle / severity of motor symptoms compared to vehicle: 25 mg/kg i.p. twice daily from onset of EAE symptoms
Source text: All animal experiments were approved by the animal ethical committee of the VU University Medical Center and carried out within the animal facility of the Vrije Universiteit Amsterdam (protocol number ANW14-02). C57BL/6 (C57BL/6JOlaHsd) mice were purchased from Harlan (The Netherlands) at an age of 10 weeks and acclimatized to the new environment with water and food access ad libitum for 2 weeks before EAE induction. Humane endpoints were taken into account to prevent unnecessary suffering of the animals.
Active EAE was induced with the myelin oligodendrocyte glycoprotein peptide amino acids 35-55 (MOG35-55) from a EAE induction kit (Hooke laboratories), according to the provided protocol. In short, mice were injected subcutaneously in the upper and lower back with 100 μl of an emulsion of MOG35-55 in complete Freund’s adjuvant (CFA, containing heat inactivated Mycobacterium tuberculosis) each. At 3 hours and 26 hours after the subcutaneous injection of the emulsion, mice received an intraperitoneal injection of 150 ng pertussis toxin dissolved in PBS (volume: 0.1 ml). Disease symptoms and bodyweight were assessed daily starting from day 7 after immunization according to the following scale: 0 no disease, 0.5: partial tail weakness, 1: tail paralysis, 2: hind limb weakness, 3: partial hind limb paralysis, 4: complete hind limb paralysis, 5: moribund, dead.
The mice were injected twice daily with BJJF078 (n = 11) or ERW1041 (n = 12), starting from the onset of EAE symptoms until the end of the experiment (day 21/day 28 after immunization). The EAE animals were injected intraperitoneally with an inhibitor dose of 25 mg/kg bodyweight (i.e. ~100 μl) containing 20% DMSO, while the corresponding control groups (n = 12 and n = 10) were injected with PBS in 20% DMSO.

[1] = target: T1, human TG2 in THP-1/TG2 macrophages (Homo sapiens, UniProt P21980); test: Cellular inhibition of TG activity in THP-1/TG2 cells (BAP incorporation); type: cell-based; settings: TG2 overexpressing THP-1 macrophages, Fig 2D
T1 construct: expressed in transfected cells; host or cells: THP-1 (TIB-202, ATCC) stably transduced with lentiviral pCDH-hTG2, PMA-differentiated, retinoic acid-stimulated
T1 sequence (P21980 1-687): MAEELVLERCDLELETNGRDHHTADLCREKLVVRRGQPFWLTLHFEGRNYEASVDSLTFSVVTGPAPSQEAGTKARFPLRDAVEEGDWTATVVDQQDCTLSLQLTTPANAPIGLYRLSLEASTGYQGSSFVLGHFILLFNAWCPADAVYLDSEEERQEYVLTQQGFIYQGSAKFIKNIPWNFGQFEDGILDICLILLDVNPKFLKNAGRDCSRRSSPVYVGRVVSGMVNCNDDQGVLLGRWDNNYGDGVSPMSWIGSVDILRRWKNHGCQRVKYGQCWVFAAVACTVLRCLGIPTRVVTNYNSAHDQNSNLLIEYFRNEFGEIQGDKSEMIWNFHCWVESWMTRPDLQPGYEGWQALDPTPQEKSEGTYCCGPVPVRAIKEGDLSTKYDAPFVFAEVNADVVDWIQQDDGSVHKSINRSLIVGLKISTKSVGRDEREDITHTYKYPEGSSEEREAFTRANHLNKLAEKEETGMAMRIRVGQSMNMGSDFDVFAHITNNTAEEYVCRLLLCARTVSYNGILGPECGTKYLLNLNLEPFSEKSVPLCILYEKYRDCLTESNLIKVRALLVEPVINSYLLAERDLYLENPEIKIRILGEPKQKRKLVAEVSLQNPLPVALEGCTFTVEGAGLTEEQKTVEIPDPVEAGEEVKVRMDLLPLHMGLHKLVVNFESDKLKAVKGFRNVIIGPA
Protocol: Human monocytic THP-1 cells (TIB-202, ATCC) were transduced with a lentiviral vector (pCDH-hTG2, gift from Prof K. Mehta, University of Texas, USA) to overexpress human TG2, to ensure high protein levels in addition to their constitutive expression that can be inhibited. To obtain a stable TG2 overexpressing cell line, transduced cells (THP-1/pCDH-hTG2 (THP-1/TG2)) were positively selected with puromycin and cultured at 37°C and 5% CO2 in air in RPMI-1640 medium (Gibco) supplemented with 10% fetal calf serum (FCS; Gibco), and 50 Units/ml of penicillin and 50 μg/ml streptomycin (Gibco).
THP-1/TG2 cells cultured with 3% FCS were differentiated into macrophages with 250 nM phorbol-12-myristate-13-acetate (Sigma) for 48 h hours. Simultaneously, the cells were stimulated with 1 μM retinoic acid (Fluka) as TG2 expression inducer to ensure maximal TG2 expression and activity. The in vitro TG activity inhibition assay was performed as previously described. In detail, the cells were washed with serum free medium and incubated for 4 h (37°C, 5% CO2) with 1 mM of the TG substrate 5-(biotinamido) pentylamine (BAP, Pierce) in serum free medium. […] The total protein concentration was determined with the BCA method (Pierce, according to protocol) and adjusted to the same concentration in all samples. […] The optical density at 492 nm was measured.

Row | IC50 ([1]; read-out: IC50 cellular TG2 transamidating activity) [nM] | effect on cellular TG2 activity ([1]; 0.03 to 100 μM) | Structure (SMILES) | loss of body weight compared to vehicle (EAE C57BL/6 mice) | severity of motor symptoms compared to vehicle (EAE C57BL/6 mice) | average maximal disease score (EAE C57BL/6 mice; 25 mg/kg i.p. twice daily from onset, scale 0-5, vehicle 3.9) [score]
1 | 1800 | – | C=CC(=O)NC1CCN(S(=O)(=O)c2cccc3c(NC(=O)c4ccc(OC)c(OC)c4)cccc23)CC1 [BJJF078, 3,4-Dimethoxy-N-(5-[4-(acryloylamino)piperidine-1-sulfonyl]-naphthalen-1-yl)-benzamide] | no differences | no differences | –
2 | – | no effect | O=C(NCC1CC(Br)=NO1)C1CCCN1C(=O)OCc1cnc2ccccc2c1 (stereo not shown) [ERW1041E, 2-[(3-Bromo-4,5-dihydro-isoxazol-5-ylmethyl)-carbamoyl]-pyrrolidine-1—carboxylic acid quinolin-3-ylmethyl ester] | not affected | modest but significant reduction | 3.4
